Source: US9492471B2, “Methods of treating a disease or disorder associated with Bruton'S Tyrosine Kinase” (Celgene Avilomics Research, Inc., priority 2013, dated 2016)
Read-outs that look alike come from different tables or passages of the source.

Assays:
Test in all cases: HotSpot kinase profiling
Format in all cases: biochemical
PRKX = biological target: T1, PRKX (Homo sapiens, UniProt P51817)
T1 construct: purchased Reaction Biology Corp
T1 sequence (P51817 1-358): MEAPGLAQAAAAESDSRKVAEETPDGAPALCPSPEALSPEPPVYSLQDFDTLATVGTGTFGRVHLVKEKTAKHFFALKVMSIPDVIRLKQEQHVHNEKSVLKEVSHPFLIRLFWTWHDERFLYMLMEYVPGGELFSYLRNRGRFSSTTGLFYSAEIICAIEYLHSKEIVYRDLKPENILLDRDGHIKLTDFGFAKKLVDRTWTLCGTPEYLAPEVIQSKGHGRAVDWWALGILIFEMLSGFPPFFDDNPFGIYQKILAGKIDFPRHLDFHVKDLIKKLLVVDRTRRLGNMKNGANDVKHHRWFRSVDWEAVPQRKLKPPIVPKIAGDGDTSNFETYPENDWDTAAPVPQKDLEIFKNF
Procedure, shortened: (§1)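 P81 filtration radiometric readout; 2 h incubation at room temperature; 0.1% phosphoric acid wash; DMSO negative control; % inhibition, mean of replicate runs.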

GRK7 = biological target: T2, GRK7 (Homo sapiens, UniProt Q8WTQ7)
T2 construct: purchased Reaction Biology Corp
T2 sequence (Q8WTQ7 1-553): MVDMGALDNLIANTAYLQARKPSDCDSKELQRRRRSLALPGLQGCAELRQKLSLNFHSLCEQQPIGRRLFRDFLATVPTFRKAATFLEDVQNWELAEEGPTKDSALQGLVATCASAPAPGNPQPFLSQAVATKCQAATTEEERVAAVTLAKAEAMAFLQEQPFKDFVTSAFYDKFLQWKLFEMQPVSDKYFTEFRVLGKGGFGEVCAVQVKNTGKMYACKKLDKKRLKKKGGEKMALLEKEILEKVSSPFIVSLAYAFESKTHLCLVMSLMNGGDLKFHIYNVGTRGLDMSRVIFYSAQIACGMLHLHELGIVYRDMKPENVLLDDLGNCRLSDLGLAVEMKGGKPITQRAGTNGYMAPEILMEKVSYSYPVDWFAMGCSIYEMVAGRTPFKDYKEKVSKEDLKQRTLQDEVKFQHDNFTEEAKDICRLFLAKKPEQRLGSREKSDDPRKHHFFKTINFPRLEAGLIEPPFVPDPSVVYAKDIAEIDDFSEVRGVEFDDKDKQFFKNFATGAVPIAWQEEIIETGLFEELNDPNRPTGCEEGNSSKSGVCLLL
Procedure, shortened: as §1

Aurora C = biological target: T3, Aurora C (Homo sapiens, UniProt Q9UQB9)
T3 construct: purchased Reaction Biology Corp
T3 sequence (Q9UQB9 1-309): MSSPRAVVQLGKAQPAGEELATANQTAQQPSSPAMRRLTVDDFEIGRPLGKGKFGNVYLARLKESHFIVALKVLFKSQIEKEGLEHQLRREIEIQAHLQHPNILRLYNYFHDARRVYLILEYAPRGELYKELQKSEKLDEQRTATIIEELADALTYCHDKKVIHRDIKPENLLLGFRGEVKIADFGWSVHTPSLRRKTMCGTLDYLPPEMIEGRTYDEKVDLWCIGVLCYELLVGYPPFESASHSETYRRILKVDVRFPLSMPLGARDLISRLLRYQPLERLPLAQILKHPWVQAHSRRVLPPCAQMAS
Procedure, shortened: as §1

WEE1 = biological target: T4, WEE1 (Homo sapiens, UniProt P30291)
T4 construct: purchased Reaction Biology Corp
T4 sequence (P30291 whole entry): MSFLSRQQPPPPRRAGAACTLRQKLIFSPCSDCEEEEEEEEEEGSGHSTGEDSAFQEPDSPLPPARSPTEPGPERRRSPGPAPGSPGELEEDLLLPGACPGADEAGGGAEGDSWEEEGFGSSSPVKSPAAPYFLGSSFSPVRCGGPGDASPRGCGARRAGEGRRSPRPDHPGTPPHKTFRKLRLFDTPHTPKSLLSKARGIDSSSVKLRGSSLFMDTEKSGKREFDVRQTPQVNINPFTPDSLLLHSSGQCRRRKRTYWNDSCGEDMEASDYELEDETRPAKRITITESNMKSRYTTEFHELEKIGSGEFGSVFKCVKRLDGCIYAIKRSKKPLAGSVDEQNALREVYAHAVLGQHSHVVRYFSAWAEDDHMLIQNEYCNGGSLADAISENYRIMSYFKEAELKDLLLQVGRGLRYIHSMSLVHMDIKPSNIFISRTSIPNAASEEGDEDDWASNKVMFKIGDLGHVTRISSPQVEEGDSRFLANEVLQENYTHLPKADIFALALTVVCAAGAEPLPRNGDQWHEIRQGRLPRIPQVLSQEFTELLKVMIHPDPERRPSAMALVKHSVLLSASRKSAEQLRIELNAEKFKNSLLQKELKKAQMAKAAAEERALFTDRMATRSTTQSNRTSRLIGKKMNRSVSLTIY
Procedure, shortened: as §1

RON/MST1R = biological target: T5, RON/MST1R (Homo sapiens, UniProt Q04912)
T5 construct: purchased Reaction Biology Corp
T5 sequence (Q04912 25-1400): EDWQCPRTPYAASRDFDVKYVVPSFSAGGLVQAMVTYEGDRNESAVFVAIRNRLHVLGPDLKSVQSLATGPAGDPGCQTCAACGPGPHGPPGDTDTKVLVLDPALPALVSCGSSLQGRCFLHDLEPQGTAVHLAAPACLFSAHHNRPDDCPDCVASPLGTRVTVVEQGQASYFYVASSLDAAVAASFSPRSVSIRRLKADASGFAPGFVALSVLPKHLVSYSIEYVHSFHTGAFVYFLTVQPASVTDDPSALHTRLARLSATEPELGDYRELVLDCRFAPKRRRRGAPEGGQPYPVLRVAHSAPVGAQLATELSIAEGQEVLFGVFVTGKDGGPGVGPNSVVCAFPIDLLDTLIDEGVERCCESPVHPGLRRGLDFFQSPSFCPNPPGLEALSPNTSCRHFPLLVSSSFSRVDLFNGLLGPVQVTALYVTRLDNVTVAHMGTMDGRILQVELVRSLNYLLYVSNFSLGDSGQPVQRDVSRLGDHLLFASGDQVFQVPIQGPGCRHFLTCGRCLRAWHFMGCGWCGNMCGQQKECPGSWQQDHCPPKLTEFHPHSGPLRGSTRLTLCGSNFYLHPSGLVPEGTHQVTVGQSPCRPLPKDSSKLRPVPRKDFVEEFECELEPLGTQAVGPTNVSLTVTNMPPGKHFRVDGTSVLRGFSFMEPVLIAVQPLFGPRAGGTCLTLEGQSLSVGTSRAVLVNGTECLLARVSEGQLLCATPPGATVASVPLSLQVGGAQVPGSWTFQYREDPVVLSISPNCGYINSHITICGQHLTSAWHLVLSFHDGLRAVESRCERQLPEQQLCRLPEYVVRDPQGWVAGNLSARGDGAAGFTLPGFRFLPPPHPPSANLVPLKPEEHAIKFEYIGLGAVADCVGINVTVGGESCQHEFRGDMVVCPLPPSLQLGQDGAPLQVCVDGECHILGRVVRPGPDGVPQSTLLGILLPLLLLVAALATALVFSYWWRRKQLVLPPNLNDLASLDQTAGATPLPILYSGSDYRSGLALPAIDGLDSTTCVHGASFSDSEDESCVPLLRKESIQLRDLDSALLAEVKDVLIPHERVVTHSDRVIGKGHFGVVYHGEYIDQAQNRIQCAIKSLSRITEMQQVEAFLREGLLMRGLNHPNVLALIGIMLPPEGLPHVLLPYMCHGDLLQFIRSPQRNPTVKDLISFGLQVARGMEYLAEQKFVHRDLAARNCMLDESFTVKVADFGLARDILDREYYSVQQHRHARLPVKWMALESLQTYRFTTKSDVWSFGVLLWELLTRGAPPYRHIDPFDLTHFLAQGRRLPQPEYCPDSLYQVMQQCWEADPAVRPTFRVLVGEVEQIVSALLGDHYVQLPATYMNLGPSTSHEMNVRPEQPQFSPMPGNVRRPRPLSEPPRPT
Procedure, shortened: as §1

CDK16/cyclin Y = biological target: T6, CDK16/cyclin Y (Homo sapiens, UniProt Q00536)
T6 construct: purchased Reaction Biology Corp
Procedure, shortened: as §1

P38b/MAPK11 = biological target: T7, P38b/MAPK11 (Homo sapiens, UniProt Q15759)
T7 construct: purchased Reaction Biology Corp
T7 sequence (Q15759 whole entry): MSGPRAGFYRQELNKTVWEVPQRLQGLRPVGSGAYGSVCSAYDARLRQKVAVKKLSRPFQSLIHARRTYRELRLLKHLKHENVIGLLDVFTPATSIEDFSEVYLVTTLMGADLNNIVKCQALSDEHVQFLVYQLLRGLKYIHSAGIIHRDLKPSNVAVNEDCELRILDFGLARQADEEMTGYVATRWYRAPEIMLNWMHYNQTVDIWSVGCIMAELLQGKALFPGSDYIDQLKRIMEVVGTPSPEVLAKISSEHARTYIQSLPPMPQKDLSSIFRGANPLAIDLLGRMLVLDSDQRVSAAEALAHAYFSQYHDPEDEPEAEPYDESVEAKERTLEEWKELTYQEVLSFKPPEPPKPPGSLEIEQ
Procedure, shortened: as §1

FER = biological target: T8, FER (Homo sapiens, UniProt P16591)
T8 construct: purchased Reaction Biology Corp
Procedure, shortened: as §1

PHKg1 = biological target: T9, PHKg1 (Homo sapiens, UniProt Q16816)
T9 construct: purchased Reaction Biology Corp
T9 sequence (Q16816 whole entry): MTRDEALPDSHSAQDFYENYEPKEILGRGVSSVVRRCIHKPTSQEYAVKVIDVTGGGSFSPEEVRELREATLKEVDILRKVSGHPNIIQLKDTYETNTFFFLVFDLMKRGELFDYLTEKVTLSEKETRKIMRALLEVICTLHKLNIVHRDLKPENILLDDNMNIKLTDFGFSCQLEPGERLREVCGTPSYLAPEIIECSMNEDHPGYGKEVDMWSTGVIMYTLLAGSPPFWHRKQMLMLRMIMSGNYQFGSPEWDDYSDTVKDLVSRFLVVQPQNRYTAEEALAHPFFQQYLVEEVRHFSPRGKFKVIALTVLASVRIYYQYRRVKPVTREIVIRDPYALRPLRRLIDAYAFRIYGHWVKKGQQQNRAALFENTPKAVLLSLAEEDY
Procedure, shortened: as §1

CLK1 = biological target: T10, CLK1 (Homo sapiens, UniProt P49759)
T10 construct: purchased Reaction Biology Corp
T10 sequence (P49759 whole entry): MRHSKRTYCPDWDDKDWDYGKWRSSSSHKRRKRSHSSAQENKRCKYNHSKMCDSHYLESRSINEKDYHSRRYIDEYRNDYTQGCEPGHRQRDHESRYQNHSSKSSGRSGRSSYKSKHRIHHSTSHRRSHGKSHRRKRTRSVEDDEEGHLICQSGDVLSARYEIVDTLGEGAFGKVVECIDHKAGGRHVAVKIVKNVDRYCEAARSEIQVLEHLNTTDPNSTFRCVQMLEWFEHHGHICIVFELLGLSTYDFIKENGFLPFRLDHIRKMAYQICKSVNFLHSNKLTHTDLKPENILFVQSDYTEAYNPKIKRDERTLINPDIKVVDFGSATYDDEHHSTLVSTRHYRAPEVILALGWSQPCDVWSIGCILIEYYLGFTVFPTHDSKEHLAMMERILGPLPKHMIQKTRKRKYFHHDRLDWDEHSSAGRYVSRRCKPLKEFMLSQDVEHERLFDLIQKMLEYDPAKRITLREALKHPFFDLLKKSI
Procedure, shortened: as §1

DMPK2 = biological target: T11, DMPK2 (Homo sapiens, UniProt Q6DT37)
T11 construct: purchased Reaction Biology Corp
T11 sequence (Q6DT37 whole entry): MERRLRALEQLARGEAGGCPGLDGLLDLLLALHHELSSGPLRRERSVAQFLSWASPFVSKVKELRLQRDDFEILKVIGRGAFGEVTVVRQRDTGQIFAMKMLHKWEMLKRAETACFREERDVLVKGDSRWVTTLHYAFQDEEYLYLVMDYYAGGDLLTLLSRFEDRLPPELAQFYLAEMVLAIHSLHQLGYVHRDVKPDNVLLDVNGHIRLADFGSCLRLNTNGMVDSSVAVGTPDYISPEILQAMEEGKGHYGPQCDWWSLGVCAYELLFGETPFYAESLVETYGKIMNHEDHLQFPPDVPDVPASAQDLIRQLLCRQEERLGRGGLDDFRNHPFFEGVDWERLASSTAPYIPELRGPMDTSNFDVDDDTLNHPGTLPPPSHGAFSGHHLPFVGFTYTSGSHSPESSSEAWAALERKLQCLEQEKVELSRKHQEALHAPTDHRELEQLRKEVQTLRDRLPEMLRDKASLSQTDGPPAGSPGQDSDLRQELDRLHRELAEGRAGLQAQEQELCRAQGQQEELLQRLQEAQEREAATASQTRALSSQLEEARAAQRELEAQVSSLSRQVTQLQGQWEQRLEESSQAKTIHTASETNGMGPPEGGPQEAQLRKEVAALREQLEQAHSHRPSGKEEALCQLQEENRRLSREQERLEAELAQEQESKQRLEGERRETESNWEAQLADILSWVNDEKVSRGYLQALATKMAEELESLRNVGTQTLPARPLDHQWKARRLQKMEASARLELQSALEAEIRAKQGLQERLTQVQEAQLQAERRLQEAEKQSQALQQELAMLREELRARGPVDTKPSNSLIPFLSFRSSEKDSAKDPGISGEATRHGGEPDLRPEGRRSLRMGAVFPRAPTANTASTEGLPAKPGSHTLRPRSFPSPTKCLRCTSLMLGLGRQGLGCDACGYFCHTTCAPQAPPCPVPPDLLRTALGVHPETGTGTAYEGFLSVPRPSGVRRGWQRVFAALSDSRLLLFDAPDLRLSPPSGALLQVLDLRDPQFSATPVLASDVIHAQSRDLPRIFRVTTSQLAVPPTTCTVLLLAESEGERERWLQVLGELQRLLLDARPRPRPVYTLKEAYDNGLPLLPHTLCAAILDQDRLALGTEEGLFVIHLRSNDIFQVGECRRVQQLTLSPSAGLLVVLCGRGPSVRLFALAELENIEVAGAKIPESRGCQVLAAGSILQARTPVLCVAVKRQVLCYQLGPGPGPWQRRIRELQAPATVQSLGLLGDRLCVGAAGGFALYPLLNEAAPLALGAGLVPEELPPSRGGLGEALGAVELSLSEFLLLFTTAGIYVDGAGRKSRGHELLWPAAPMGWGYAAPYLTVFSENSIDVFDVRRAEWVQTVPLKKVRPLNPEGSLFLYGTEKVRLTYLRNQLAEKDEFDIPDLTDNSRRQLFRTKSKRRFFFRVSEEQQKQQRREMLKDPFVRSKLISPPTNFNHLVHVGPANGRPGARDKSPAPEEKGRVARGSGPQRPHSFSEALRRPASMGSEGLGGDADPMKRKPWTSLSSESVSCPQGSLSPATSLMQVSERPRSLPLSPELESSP
Procedure, shortened: as §1

KDR/VEGFR2 = biological target: T12, KDR/VEGFR2 (Homo sapiens, UniProt P35968)
T12 construct: purchased Reaction Biology Corp
Procedure, shortened: as §1

STK25/YSK1 = biological target: T13, STK25/YSK1 (Homo sapiens, UniProt O00506)
T13 construct: purchased Reaction Biology Corp
Procedure, shortened: as §1

[1] = read-out: % Enzyme Activity (relative to DMSO controls) Run 1
[2] = read-out: % Enzyme Activity (relative to DMSO controls) Run 2

In the case of C=CC(=O)Nc1cccc(Nc2nc(Nc3ccc(OCCOC)c(F)c3)ncc2F)c1 [Compound 2], the inhibition at 3 µM (PRKX) is reported as 1.8%, the remaining activity at 3 µM (PRKX; [1]) is reported as 97.9% and the remaining activity at 3 µM (PRKX; [2]) is reported as 98.5%. It also gave an inhibition at 3 µM (GRK7) of 9.96%, a remaining activity at 3 µM (GRK7; [1]) of 89.1% and a remaining activity at 3 µM (GRK7; [2]) of 90.9%. It also gave an inhibition at 3 µM (Aurora C) of 72%, a remaining activity at 3 µM (Aurora C; [1]) of 26.2% and a remaining activity at 3 µM (Aurora C; [2]) of 29.8%. It also gave an inhibition at 3 µM (WEE1) of 26%, a remaining activity at 3 µM (WEE1; [1]) of 73.1% and a remaining activity at 3 µM (WEE1; [2]) of 74.9%. It also gave an inhibition at 3 µM (RON/MST1R) of -2.24%, a remaining activity at 3 µM (RON/MST1R; [1]) of 103% and a remaining activity at 3 µM (RON/MST1R; [2]) of 101%. It also gave an inhibition at 3 µM (CDK16/cyclin Y) of -3.73%, a remaining activity at 3 µM (CDK16/cyclin Y; [1]) of 104% and a remaining activity at 3 µM (CDK16/cyclin Y; [2]) of 103%. For the same compound, the inhibition at 3 µM (P38b/MAPK11) was -1.41%, the remaining activity at 3 µM (P38b/MAPK11; [1]) was 102% and the remaining activity at 3 µM (P38b/MAPK11; [2]) was 101%. The inhibition at 3 µM (FER) was 11.8%, the remaining activity at 3 µM (FER; [1]) was 88.1% and the remaining activity at 3 µM (FER; [2]) was 88.3%. It also gave an inhibition at 3 µM (PHKg1) of 14.5%, a remaining activity at 3 µM (PHKg1; [1]) of 85.8% and a remaining activity at 3 µM (PHKg1; [2]) of 85.2%. It also gave an inhibition at 3 µM (CLK1) of 24.1%, a remaining activity at 3 µM (CLK1; [1]) of 74.4% and a remaining activity at 3 µM (CLK1; [2]) of 77.4%. The inhibition at 3 µM (DMPK2) was 1.54%, the remaining activity at 3 µM (DMPK2; [1]) was 97.4% and the remaining activity at 3 µM (DMPK2; [2]) was 99.6%. The inhibition at 3 µM (KDR/VEGFR2) was 17.7%, the remaining activity at 3 µM (KDR/VEGFR2; [1]) was 83.3% and the remaining activity at 3 µM (KDR/VEGFR2; [2]) was 81.2%. For the same compound, the inhibition at 3 µM (STK25/YSK1) was 5.72%, the remaining activity at 3 µM (STK25/YSK1; [1]) was 94.5% and the remaining activity at 3 µM (STK25/YSK1; [2]) was 94.1%.
